Data on 15 sequences can be found in US8012944B2, “Method for treating cancer using IAP antisense oligomer and chemotherapeutic agent” (Pharmascience Inc., priority 2003, dated 2011).

d = 2'-deoxy (DNA); m = 2'-O-methyl

Holding throughout (format): cell-based, human
One data set relates to HIAP1 mRNA. Nature of the data set: HIAP1 mRNA in SF295 cells, basal conditions (TaqMan). Set-up: decrease of HIAP1 mRNA compared to mock or scrambled survivin control: concentration or dose not given beside the values. The conditions noted are these: for HIAP1 mRNA levels (in words): SF295 cells (FIG. 21). As to the method: (§1) RNA was extracted from cells lysed in RLT buffer (QIAGEN, Valencia, Calif.), and purified using QIAGEN RNeasy columns/kits. Real-time quantitative PCR was performed on a Perkin-Elmer ABI 7700 Prism PCR machine. RNA was reverse transcribed and amplified according to the TaqMan Universal PCR Master Mix protocol of PE Biosystems, using primers and probes designed to specifically recognize XIAP, HIAP1, survivin, or GAPDH. For human survivin, the forward primer was 5′-[…]-3′ (SEQ ID NO: 263), the reverse primer was 5′-GAAAGGAAAGCGCAACCG-3′ (SEQ ID NO: 264), and the probe was 5′-(FAM)[…](TAMRA)-3′ (SEQ ID NO: 265). For human HIAP1, the forward primer was 5′-[…]-3′ (SEQ ID NO: 266), the reverse primer was 5′-[…]-3′ (SEQ ID NO: 267), and the probe was 5′-(FAM)[…](TAMRA)-3′ (SEQ ID NO: 268). For human XIAP, the forward primer was 5′-[…]-3′ (SEQ ID NO: 269), the reverse primer was 5′-[…]-3′ (SEQ ID NO: 270), and the probe was 5′-(FAM)[…](TAMRA)-3′ (SEQ ID NO: 271). For human GAPDH, the forward primer was 5′-GAAGGTGAAGGTCGGAGTC-3′ (SEQ ID NO: 272), the reverse primer was 5′-GAAGATGGTGATGGGATTC-3′ (SEQ ID NO: 273), and the probe was 5′-(JOE)[…](TAMRA)-3′ (SEQ ID NO: 274). FAM is 6-carboxyfluoroscein, JOE is 6-carboxy-4,5-dichloro-2,7-dimethoxyfluoroscein, and TAMRA is 6-carboxy-N,N,N′,N′-tetramethylrhodamine. FAM and JOE are 5′ reporter dyes, while TAMRA is a 3′ quencher dye.
(§2) Relative quantification of gene expression was performed as described in the PE Biosystems manual using GAPDH as an internal standard. The comparative Ct (cycle threshold) method was used for relative quantitation of IAP mRNA levels compared to GAPDH mRNA levels. Briefly, real-time fluorescence measurements were taken at each PCR cycle and the threshold cycle (Ct) value for each sample was calculated by determining the point at which fluorescence exceeded a threshold limit of 30 times the baseline standard deviation. The average baseline value and the baseline SD are calculated starting from the third cycle baseline value and stopping at the baseline value three cycles before the signal starts to exponentially rise. The PCR primers and/or probes for the specific IAPs were designed to span at least one exon-intron boundary separated by 1 kb or more of genomic DNA, to reduce the possibility of amplifying and detecting genomic DNA contamination. The specificity of the signal, and possible contamination from DNA, were verified by treating some RNA samples with either DNase or RNase, prior to performing the reverse transcription and PCR reaction steps.
A library of 15 HIAP1 antisense nucleobase oligomers as oligonucleotides was screened for protein knock-down by western blot analysis and for RNA knock-down by TaqMan, using the primers and probes described in Example 3, above, under two different conditions. HIAP1 RNA levels may be detected using standard Northern blot analyses or RT-PCR techniques. The antisense oligonucleotides were administered to cells under basal conditions or under cycloheximide-induction conditions (24 hour treatment with sub-toxic doses). Cycloheximide (CHX) can lead to a 10- to 200-fold induction of HIAP1 mRNA depending on the cell line treated. […] This effect of CHX is via two distinct mechanisms of action. First, CHX activates NFkB, a known transcriptional inducer of HIAP1, by blocking the de novo synthesis of a labile protein, IkB, which is an inhibitor of NFkB. This effect is mimicked by puromycin, another protein synthesis inhibitor, and by TNF-alpha, which induces a signaling cascade leading to the phosphorylation, ubiquination, and degradation of IkB.
SF295 glioblastoma cells were transfected with lipofectin and oligonucleotide (scrambled survivin, no oligonucleotide, antisense APO 1 to APO 15) or left untreated. […]
In general terms: In qPCR the cycle at which signal appears reflects the starting amount.

The test system of the next data set is XIAP protein. Nature of the data set: XIAP protein knock-down in T24 cells (XIAP ELISA, relative to total protein). The conditions noted are these: for XIAP protein levels relative to total protein, compared to mock transfection (in words): first screen of the library. An excerpt:
(§3) We used TaqMan quantitative PCR (described below) to assay for changes in mRNA levels after oligonucleotide treatment. We employed ELISA for determining XIAP protein levels and western blotting for determining HIAP1 protein levels. Transfection conditions were optimized with Lipofectamine plus or Lipofectamine 2000 (Life Technologies, Canada) on T24 bladder carcinoma cells or H460 non-small cell lung carcinoma cells, or lipofectin on SF-295 glioblastoma cells, using a fluorescein-tagged sense oligonucleotide (5′-mGmAGAAGATGACTGGTAAmCmA-3′; SEQ ID NO: 261) from XIAP spanning the start codon as a control. The results were visualized and gauged by epi-fluorescence microscopy. In the case of T24 cells, transfections were further optimized based on the ability of a published oligonucleotide to downregulate survivin expression (Li et al., Nat. Cell Biol. 1:461-466, 1999) (5′-U/TGTGCTATTCTGTGAAU/TU/T-3′ SEQ ID NO: 262). We optimized the transfection conditions based on the TaqMan results of survivin RNA knock-down detected with PCR primers and fluorescent probe, described in detail below. […] We then applied these conditions to screen for XIAP protein knock-down using the oligo library against T24 cells.
A standard colorimetric XIAP ELISA assay was performed using an affinity-purified rabbit polyclonal antibody to XIAP as a capture antibody, and was detected with a XIAP monoclonal antibody (MBL, Japan) and a biotinylated anti-mouse Ig antibody and horseradish peroxidase-conjugated streptavidin and TMB substrate. Alternatively, a polyclonal XIAP or HIAP1 antibody may be used to measure XIAP or HIAP1 protein levels, respectively.
The XIAP synthetic library of 96 antisense oligonucleotides was first screened for decreases in XIAP protein levels. Specifically, T24 cells (1.5×10^4 cells/well) were seeded in wells of a 96-well plate on day 1, and were cultured in antibiotic-free McCoy's medium for 24 hours. On day 2, the cells were transfected with XIAP antisense oligonucleotides as described above (oligonucleotides are labeled according to their plated position, i.e., A1 to H12, and include two repeats, A13 and B13 that contain lyophilized DNA pellets that stuck to the sealing membrane). Briefly, the nucleobase oligomers were diluted in 10 μl/well of serum-free, antibiotic-free McCoy's medium and then PLUS reagent was added. Lipofectamine was diluted in 10 μl/well of serum-free, antibiotic-free McCoy's medium, and both mixes were incubated for 15 minutes at room temperature. The mixes were then combined and incubated for 15 minutes at room temperature.
In the meantime, the complete medium was removed from the cells and 50 μl/well of serum-free, antibiotic-free medium was added to the cells. The transfection mixes were added to the well, and the cells were incubated for three hours. Then 30 μl/well of serum-free, antibiotic-free medium and 100 μl/well of antibiotic-free complete medium, containing 20% fetal bovine serum were added to each well.
At day 3, XIAP RNA levels were measured using quantitative real-time PCR techniques, as described above. At day 4, XIAP protein levels were measured by ELISA (FIGS. 1A, 1C, 1E, 1G, 1I, and 1K), and total cellular protein was measured biochemically (FIGS. 1B, 1D, 1F, 1H, 1J, and 1L; used to normalize the XIAP protein levels). The results were compared to a mock transfection sample (treated with the transfection agent but no oligonucleotide DNA was added, and then processed as for the other samples). Time course experiments determined that the optimal time for protein knock-down to be around 12 to 24 hours. […]

In a further data set the test system is XIAP RNA. Nature of the data set: XIAP RNA knock-down in T24 cells (TaqMan quantitative PCR).
From the text: as §3, §1, §2
The XIAP synthetic library of 96 antisense oligonucleotides was first screened for decreases in XIAP protein levels. […]

Data set [1] deals with XIAP mRNA. Nature of the data set: XIAP mRNA knock-down in H460 cells (real-time RT-PCR / TaqMan). As to conditions: 2 × 2 MBO; NCI-H460 cells, 9 hours post-transfection; relative level (mock control 1.01).
Data set [2] relates to XIAP mRNA. The data set is described as above. As to the method:
as §1, §2
A portion of the 96 nucleobase oligomers depicted in Table 2 were rescreened for their ability to knock-down XIAP mRNA in NCI-H460 cells at […] post-transfection.
One day prior to transfection, H460 cells were plated in 6- or 96-well tissue culture plates. Phosphorothioate antisense oligonucleotides were delivered into cells with Lipofectamine 2000 (Life Technologies) in the form of liposome-oligonucleotide complexes. Following a 4.5 or 6 h transfection, the transfection medium was replaced with RPMI medium containing 10% FBS, and the cells incubated for another 24 or 48 h.
Total RNA from H460 cells treated with liposome-oligonucleotide complexes for 6 hours was immediately isolated using RNeasy mini spin columns and DNase treatment (QIAGEN, Valencia, Calif.). Specific XIAP mRNA was measured using a real-time quantitative RT-PCR method. […]

Consider “GGCTGCAATATTTCCTTTT (chemistry not given here) [APO 14]”, for which the “HIAP1 mRNA levels (in words)” value in the data set with HIAP1 mRNA is “stress-induced increase in HIAP1 mRNA”.

Take “CTACAGCTGCATGACAACT (antisense; sugars from the 5' end m2 d15 m2, backbone and T or U not given here; further chemistry not fully specified) [Code F4]”: in the data set with XIAP protein, the “XIAP down-regulation T24 protein” value turned out to be 43% and the “XIAP protein levels relative to total protein, compared to mock transfection (in words)” value is “some decrease”. For the same sequence, the “XIAP down-regulation T24 RNA” value in the data set with XIAP RNA is listed as 33%.

For “AGTTTTCAACTTTGTACTG (antisense; sugars from the 5' end m2 d15 m2, backbone and T or U not given here; further chemistry not fully specified) [Code D5]”, in the data set with XIAP protein, the “XIAP down-regulation T24 protein” value is listed as 33% and the “XIAP protein levels relative to total protein, compared to mock transfection (in words)” value is listed as “some decrease”. The “XIAP down-regulation T24 RNA” value in the data set on XIAP RNA is recorded as 39%.

For “CCTGTCCTTTAATTCTTAT (chemistry not given here) [APO 13]”, the “HIAP1 mRNA levels (in words)” value with HIAP1 mRNA is “stress-induced increase in HIAP1 mRNA”.

On to “ACCCATGCACAAAACTACC (chemistry not given here) [APO 4]”, for which the “HIAP1 mRNA levels (in words)” value with HIAP1 mRNA is on record as “stress-induced increase in HIAP1 mRNA”.

In the case of “ACCCTGGATACCATTTAGC (antisense; chemistry not fully specified) [Code F8]”, the “XIAP protein levels relative to total protein, compared to mock transfection (in words)” value in the data set with XIAP protein is “some decrease”. Further, the “XIAP RNA” value with XIAP mRNA [1] is given as 0.62. Further, in the data set on XIAP mRNA [2], the “XIAP down-regulation H460 RNA” value stood at 47%.

In the case of “GCATTTTCGTTATTCATTG (chemistry not given here) [APO 11]”, the “HIAP1 mRNA levels (in words)” value with HIAP1 mRNA is “stress-induced increase in HIAP1 mRNA”.

Regarding “ATGATCTCTGCTTCCCAGA (antisense; sugars from the 5' end m2 d15 m2, backbone and T or U not given here; further chemistry not fully specified) [Code E5]”, the “XIAP RNA” value in the data set on XIAP mRNA [1] is 0.52. The “XIAP down-regulation H460 RNA” value in the data set on XIAP mRNA [2] stood at 46%.

Consider “TGTTCTAACAGATATTTGC (antisense; sugars from the 5' end m2 d15 m2, backbone, methylation of C and T or U not given here; further chemistry not fully specified) [Code G8]”, for which the “XIAP RNA” value in the data set with XIAP mRNA [1] is reported as 0.64. For the same sequence, the “XIAP down-regulation H460 RNA” value in the data set on XIAP mRNA [2] came to 49%.

On to “TACACTTAGAAATTAAATC (antisense; sugars from the 5' end m2 d15 m2, backbone, methylation of C and T or U not given here; further chemistry not fully specified) [Code A12]”, for which the “XIAP RNA” value in the data set on XIAP mRNA [1] is on record as 0.54. Also, the “XIAP down-regulation H460 RNA” value with XIAP mRNA [2] is reported as 46%.

Turning to “TGAATTAATTTTTAATATC (antisense; sugars from the 5' end m2 d15 m2, backbone and T or U not given here; further chemistry not fully specified) [Code H1]”, in the data set with XIAP mRNA [1], the “XIAP RNA” value was 0.87. Besides, in the data set on XIAP mRNA [2], the “XIAP down-regulation H460 RNA” value is 13%.

As for “TTCAACATGGAGATTCTAA (chemistry not given here) [APO 9]”, the “decrease of HIAP1 mRNA compared to mock or scrambled survivin control” value with HIAP1 mRNA (SF295 cells, six hours after transfection) is on record as about 50%.

For “TATATATTCTTGTCCCTTC (antisense; sugars from the 5' end m2 d15 m2, backbone, methylation of C and T or U not given here; further chemistry not fully specified) [Code A9]”, in the data set on XIAP mRNA [1], the “XIAP RNA” value is 0.46. Further, in the data set with XIAP mRNA [2], the “XIAP down-regulation H460 RNA” value stood at 62%.

Consider “GGAAGATTTGTTGAATTTG (antisense; sugars from the 5' end m2 d15 m2, backbone and T or U not given here; further chemistry not fully specified) [Code F7]”, for which, in the data set on XIAP mRNA [1], the “XIAP RNA” value is given as 0.3. Further, in the data set on XIAP mRNA [2], the “XIAP down-regulation H460 RNA” value was found to be 69%.

As for “AGTATGAAATATTTCTGAT (antisense; sugars from the 5' end m2 d15 m2, backbone and T or U not given here; further chemistry not fully specified) [Code E1]”, the “XIAP RNA” value with XIAP mRNA [1] turned out to be 0.31. In addition, the “XIAP down-regulation H460 RNA” value in the data set on XIAP mRNA [2] is on record as 69%.
